The results in this text go back to patent US8551991B2, “1,2,3,4-tetrahydroquinoxaline derivative having glucocorticoid receptor binding activity” (Santen Pharmaceutical Co., Ltd., priority 2006, dated 2013).

For the assay, the target named is T1, Recombinant human GR (Homo sapiens, UniProt P04150).
T1 construct: purchased Invitrogen P2816
T1 sequence (P04150 1-777): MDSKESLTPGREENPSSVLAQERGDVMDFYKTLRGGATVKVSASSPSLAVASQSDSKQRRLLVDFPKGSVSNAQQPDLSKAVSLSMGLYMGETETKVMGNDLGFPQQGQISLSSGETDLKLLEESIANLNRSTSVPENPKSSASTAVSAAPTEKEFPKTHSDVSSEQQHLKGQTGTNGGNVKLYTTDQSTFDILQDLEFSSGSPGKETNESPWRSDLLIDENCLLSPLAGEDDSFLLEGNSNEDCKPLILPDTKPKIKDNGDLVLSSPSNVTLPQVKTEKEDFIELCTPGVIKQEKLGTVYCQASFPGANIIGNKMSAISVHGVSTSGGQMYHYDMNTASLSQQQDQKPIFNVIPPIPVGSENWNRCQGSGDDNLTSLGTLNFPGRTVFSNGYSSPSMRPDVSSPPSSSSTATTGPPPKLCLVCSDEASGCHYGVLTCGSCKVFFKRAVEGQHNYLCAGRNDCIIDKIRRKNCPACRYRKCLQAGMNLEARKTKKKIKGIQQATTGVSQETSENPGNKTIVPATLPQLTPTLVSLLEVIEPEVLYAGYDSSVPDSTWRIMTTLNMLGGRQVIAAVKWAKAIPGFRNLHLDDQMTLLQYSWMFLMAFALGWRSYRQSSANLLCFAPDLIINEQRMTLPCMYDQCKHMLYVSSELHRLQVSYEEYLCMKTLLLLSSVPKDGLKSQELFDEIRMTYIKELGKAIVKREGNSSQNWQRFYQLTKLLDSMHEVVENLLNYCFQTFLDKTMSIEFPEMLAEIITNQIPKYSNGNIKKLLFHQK
As to the kind of experiment: GR competitor assay by fluorescence polarization (binding activity to glucocorticoid receptor). The settings on record: 20 μM test compound solution, 25 μL per well plus 12.5 μL each of 4×GS1 and 4×GR solution; Fluormone GS1 ligand; positive control 2 mM dexamethasone; read-out: GR Binding ratio (%). As to the method:
1. Evaluation Test for Binding Activity to Glucocorticoid Receptor (Hereinafter Referred to as “GR”)
In order to evaluate a binding activity to GR, a receptor competitor assay was carried out by a fluorescence polarization method. In the assay, a GR competitor assay kit (manufactured by Invitrogen, cat No. P2816) was used, and a procedure was carried out according to the protocol attached to the kit. Hereinafter, the specific method will be described.
GR screening buffer: A buffer containing 10 mM potassium phosphate (pH 7.4), 20 mM sodium molybdate (Na2MoO4), 0.1 mM ethylene diamine tetraacetic acid (EDTA), 5 mM dithiothreitol (DTT), 0.1 mM stabilizing peptide and 2% dimethylsulfoxide was prepared.
4×GS1 solution: Fluormone™ GS1, which is a fluorescent glucocorticoid ligand, was diluted with GR screening buffer, whereby a 4 nM solution was prepared.
4×GR solution: Recombinant human GR was diluted with GR screening buffer, whereby a 16 nM solution was prepared.
After a test compound was dissolved in dimethylsulfoxide, the resulting solution was diluted with GR screening buffer, whereby a 20 μM test compound solution was prepared.
1) The test compound solution was added in an amount of 25 μL into each well of a 96-well plate, and then, 4×GS1 solution and 4×GR solution were added in an amount of 12.5 μL into each well, respectively.
2) The plate was incubated in a dark place at room temperature for 2 to 4 hours.
3) By using a multimode plate reader, Analyst™ HT (manufactured by LJL Biosystems), fluorescence polarization of each well was measured. As the blank, a well containing GR screening buffer in place of the test compound and 4×GS1 solution was used.
4) The same procedure as that in the above 1) to 3) was carried out except that GR screening buffer was used in place of the test compound solution, and the obtained result was taken as the negative control.
5) The same procedure as that in the above 1) to 3) was carried out except that 2 mM dexamethasone was used in place of the test compound solution, and the obtained result was taken as the positive control.
A GR binding ratio (%) was calculated from the following equation.
GR binding ratio (%)=100×[1-(fluorescence polarization of test compound solution-fluorescence polarization of positive control solution)/(fluorescence polarization of negative control solution—fluorescence polarization of positive control solution)]

Take `COc1ccccc1-c1ccc2c(c1COc1cc(F)ccc1C)N(C)C(=O)C(C)(C)N2` [Compound 6-8]: the inhibition at 10 µM amounted to 98%. As to `COc1cc(OC(=O)c2cccnc2C)ccc1-c1ccc2c(c1COc1cc(F)ccc1C)N(C)C(=O)C(C)(C)N2` [Compound 15-2], the inhibition at 10 µM stood at 100%. `COc1ccc([N+](=O)[O-])cc1OCc1c(-c2ccc(OC(=O)c3ccccc3C)cc2OC)ccc2c1NC(=O)C(C)(C)N2` [Compound 22, 7-[2-Methoxy-4-(2-methylbenzoyloxy)phenyl]-8-(2-methoxy-5-nitrophenoxymethyl)-3,3-dimethyl-3,4-dihydro-1H-quinoxalin-2-one]: the inhibition at 10 µM came to 100%. As for `COc1ccc([N+](=O)[O-])cc1OCc1c(-c2ccc(F)cc2OC)ccc2c1N(C)C(=O)C(C)(C)N2` [Compound 3-16], the figure is 100%. With `C=CCN1C(=O)C(C)(C)Nc2ccc(-c3cc(F)ccc3OC)c(COC(=O)c3ccc(C)cc3)c21` [Compound 5-19] the figure was 100%; with `COc1cccc(F)c1-c1ccc2c(c1COc1cc(F)ccc1C)N(C)C(=O)C(C)(C)N2` [Compound 6-23], 98%. With `COc1ccc(F)cc1-c1ccc2c(c1CNc1ccccc1)N(C)C(=O)C(C)(C)N2` [Compound 5-14] the figure was 100%. Turning to `C=CCc1ccccc1OCc1c(-c2ccc(F)cc2OC)ccc2c1N(C)C(=O)C(C)(C)N2` [Compound 3-17], the inhibition at 10 µM is 100%. As for `COc1ccc(CO)cc1-c1ccc2c(c1COc1cc(F)ccc1C)N(C)C(=O)C(C)(C)N2` [Compound 9-1, 8-(5-Fluoro-2-methylphenoxymethyl)-7-(5-hydroxymethyl-2-methoxyphenyl)-1,3,3-trimethyl-3,4-dihydro-1H-quinoxalin-2-one], the inhibition at 10 µM stood at 100%. As for `COc1cc(OC(=O)Nc2cccnc2)ccc1-c1ccc2c(c1COc1cc(F)ccc1C)N(C)C(=O)C(C)(C)N2` [Compound 17-5, 8-(5-Fluoro-2-methylphenoxymethyl)-7-[2-methoxy-4-(pyridin-3-ylaminocarbonyloxy)phenyl]-1,3,3-trimethyl-3,4-dihydro-1H-quinoxalin-2-one], the figure is 91%. Regarding `COc1ccc(F)cc1-c1ccc2c(c1COC(=O)c1ccccc1)N(C)C(=O)C(C)(C)N2` [Compound 5-1, 8-Benzoyloxymethyl7-(5-fluoro-2-methoxyphenyl)-1,3,3-trimethyl-3,4-dihydro-1H-quinoxalin-2-one], the inhibition at 10 µM amounted to 100%. On to `COc1ccc(C)cc1NCc1c(-c2ccc(F)cc2OC)ccc2c1N(C)C(=O)C(C)(C)N2` [Compound 4-5], for which the inhibition at 10 µM turned out to be 100%. With `COc1cc(OC(=O)c2sccc2Cl)ccc1-c1ccc2c(c1COc1cc(F)ccc1C)N(C)C(=O)C(C)(C)N2` [Compound 15-17] the figure was 95%.

Regarding `COc1ccc(F)cc1-c1ccc2c(c1COC(=O)c1ccc(C)cc1)NC(=O)C(C)(C)N2` [Compound 2-2], the inhibition at 10 µM turned out to be 99%. Turning to `COc1ccc(C(=O)OCc2c(-c3ccc(OC(=O)c4ccccc4C)cc3OC)ccc3c2N(C)C(=O)C(C)(C)N3)cc1` [Compound 5-21], the inhibition at 10 µM stood at 100%.

As for `COc1ccccc1NCc1c(-c2ccc(O)cc2OC)ccc2c1N(C)C(=O)C(C)(C)N2` [Compound 21-3, 7-(4-Hydroxy-2-methoxyphenyl)-8-(2-methoxyphenylaminomethyl)-1,3,3-trimethyl-3,4-dihydro-1H-quinoxalin-2-one], the inhibition at 10 µM was determined as 100%. `COc1ccc(C(=O)Oc2ccc(-c3ccc4c(c3COc3cc(F)ccc3C)N(C)C(=O)C(C)(C)N4)c(OC)c2)cc1` [Compound 14-30]: the inhibition at 10 µM is 100%. As for `COc1cc(F)ccc1-c1ccc2c(c1COc1cc([N+](=O)[O-])ccc1C)N(C)C(=O)C(C)(C)N2` [Compound 3-7], the figure is 100%. As for `COc1cc(OC(=O)c2ccccc2C)ccc1-c1ccc2c(c1CNc1cc(F)ccc1C)N(C)C(=O)C(C)(C)N2` [Compound 21-22, 8-(5-Fluoro-2-methylphenylaminomethyl)-7-[2-methoxy-4-(2-methylbenzoyloxy)phenyl]-1,3,3-trimethyl-3,4-dihydro-1H-quinoxalin-2-one], the figure is 100%; as for `COc1cc(OC(=O)N2CCOCC2)ccc1-c1ccc2c(c1COc1cc(F)ccc1C)N(C)C(=O)C(C)(C)N2` [Compound 18-1, 8-(5-Fluoro-2-methylphenoxymethyl)-7-[2-methoxy-4-(morpholin-4-ylcarbonyloxy)phenyl]-1,3,3-trimethyl-3,4-dihydro-1H-quinoxalin-2-one], 100%. Consider `COc1cc(NC(=O)c2ccccc2Cl)ccc1-c1ccc2c(c1COc1cc(F)ccc1C)N(C)C(=O)C(C)(C)N2` [Compound 14-22], for which the inhibition at 10 µM was 100%. With `CCCC(=O)Oc1ccc(-c2ccc3c(c2CNc2ccccc2OC)N(C)C(=O)C(C)(C)N3)c(OC)c1` [Compound 21-5, 7-(4-Butyryloxy-2-methoxyphenyl)-8-(2-methoxyphenylaminomethyl)-1,3,3-trimethyl-3,4-dihydro-1H-quinoxalin-2-one] the figure was 98%; with `COc1ccc(Cl)cc1-c1ccc2c(c1COc1ccccc1CCO)N(C)C(=O)C(C)(C)N2` [Compound 3-10], 100%; with `COc1cc(F)ccc1-c1ccc2c(c1COc1cc(Cl)ccc1C)N(C)C(=O)C(C)(C)N2` [Compound 3-15], 100%. As to `COc1ccc(OC(=O)c2ccccc2)cc1-c1ccc2c(c1COc1cc(F)ccc1C)N(C)C(=O)C(C)(C)N2` [Compound 6-32], the inhibition at 10 µM was determined as 89%. As for `COc1ccc(C(=O)OCc2c(-c3ccc(OC(=O)c4ccccc4C)cc3OC)ccc3c2NC(=O)C(C)(C)N3)cc1` [Compound 1-4, 7-[2-Methoxy-4-(2-methylbenzoyloxy)phenyl]-8-(4-methoxybenzoyloxymethyl)-3,3-dimethyl-3,4-dihydro-1H-quinoxalin-2-one], the inhibition at 10 µM stood at 91%. With `COc1ccc(Cl)cc1-c1ccc2c(c1CNc1cc(F)ccc1C)N(C)C(=O)C(C)(C)N2` [Compound 4-7] the figure was 100%; with `COc1ccc(F)cc1-c1ccc2c(c1COc1ccccc1)N(C)C(=O)C(C)(C)N2` [Compound 5-9], 100%; with `COc1cc(NC(=O)c2ccncc2)ccc1-c1ccc2c(c1COc1cc(F)ccc1C)N(C)C(=O)C(C)(C)N2` [Compound 14-21, 8-(5-fluoro-2-methylphenoxymethyl)-7-[2-methoxy-4-(pyridin-4-ylcarbonylamino)phenyl]-1,3,3-trimethyl-3,4-dihydro-1H-quinoxalin-2-one], 100%. With `COc1ccc(C(F)(F)F)cc1-c1ccc2c3c1CN(c1ccccc1OC)CN3C(=O)C(C)(C)N2` [Compound 6-38] the figure was 100%. For the molecule `COc1cc(OC(=O)c2ccccc2SC)ccc1-c1ccc2c(c1COc1cc(F)ccc1C)N(C)C(=O)C(C)(C)N2` [Compound 15-6], the inhibition at 10 µM was determined as 100%. As for `CCN1C(=O)C(C)(C)Nc2ccc(-c3cc(F)ccc3OC)c(COC(=O)c3ccc(C)cc3)c21` [Compound 5-18], the figure is 100%; as for `COc1ccc(C(F)(F)F)cc1-c1ccc2c(c1COc1cc(F)ccc1C)N(C)C(=O)C(C)(C)N2` [Compound 6-19], 100%; as for `COc1ccccc1NCc1c(-c2ccc(F)cc2OC)ccc2c1N(C)C(=O)C(C)(C)N2` [Compound 4-11], 100%.
